Calls of active or inactive are those of the source. A value given as a limit tells only on which side of the number the result lay.

For test [1], the target named is Delta-type opioid receptor (Homo sapiens, UniProt P41143). In words: Counterscreen for agonists of heterodimerization of the mu 1 (OPRM1) and delta 1 (OPRD1) opioid receptors: Luminescence-based cell-based high throughput dose response assay to identify agonists of OPRD1 homodimerization. [Related pubchem assays (depositor defined):AID504326, AID504355, AID504692, AID504904, AID504905]. Format: functional.
Sequence of Delta-type opioid receptor (P41143 whole entry): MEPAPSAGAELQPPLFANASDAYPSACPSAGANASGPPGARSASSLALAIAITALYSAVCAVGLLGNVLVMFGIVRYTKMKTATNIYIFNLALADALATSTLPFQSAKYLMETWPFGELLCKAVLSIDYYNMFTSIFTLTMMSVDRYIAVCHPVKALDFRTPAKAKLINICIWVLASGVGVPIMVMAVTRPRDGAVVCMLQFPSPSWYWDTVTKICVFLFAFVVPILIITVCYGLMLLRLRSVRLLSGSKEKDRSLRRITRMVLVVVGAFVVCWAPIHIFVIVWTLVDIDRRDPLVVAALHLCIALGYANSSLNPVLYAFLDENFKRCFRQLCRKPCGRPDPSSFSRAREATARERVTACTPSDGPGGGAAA

The target of test [2] is 5-hydroxytryptamine receptor 5A (Homo sapiens, UniProt P47898). The experiment in a line: Counterscreen for agonists of OPRM1-OPRD1 heterodimerization: luminescence-based cell-based high throughput dose response assay to identify agonists of 5-hydroxytryptamine (serotonin) 5A receptor (HTR5A). [Related pubchem assays (depositor defined):AID504326, AID504355, AID504692, AID504904, AID504905]. In kind it is functional.
Sequence of 5-hydroxytryptamine receptor 5A (P47898 whole entry): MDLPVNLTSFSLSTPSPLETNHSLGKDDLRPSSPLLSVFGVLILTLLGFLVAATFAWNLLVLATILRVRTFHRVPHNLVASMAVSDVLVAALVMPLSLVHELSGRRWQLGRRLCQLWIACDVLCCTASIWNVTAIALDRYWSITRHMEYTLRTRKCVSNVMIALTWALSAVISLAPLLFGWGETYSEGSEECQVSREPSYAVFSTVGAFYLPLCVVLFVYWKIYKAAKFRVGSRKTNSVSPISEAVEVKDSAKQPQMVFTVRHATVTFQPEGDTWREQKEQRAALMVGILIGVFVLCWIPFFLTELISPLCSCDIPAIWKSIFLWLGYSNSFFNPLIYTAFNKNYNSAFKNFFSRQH

Test [3] concerns the target T1, Sentrin-specific protease 6 (Homo sapiens, UniProt Q9GZR1).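 Further: Luminescence-based dose-response confirmatory assay of SENP6 inhibition, following up an ultra-high-throughput screen.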
T1 sequence (Q9GZR1 whole entry): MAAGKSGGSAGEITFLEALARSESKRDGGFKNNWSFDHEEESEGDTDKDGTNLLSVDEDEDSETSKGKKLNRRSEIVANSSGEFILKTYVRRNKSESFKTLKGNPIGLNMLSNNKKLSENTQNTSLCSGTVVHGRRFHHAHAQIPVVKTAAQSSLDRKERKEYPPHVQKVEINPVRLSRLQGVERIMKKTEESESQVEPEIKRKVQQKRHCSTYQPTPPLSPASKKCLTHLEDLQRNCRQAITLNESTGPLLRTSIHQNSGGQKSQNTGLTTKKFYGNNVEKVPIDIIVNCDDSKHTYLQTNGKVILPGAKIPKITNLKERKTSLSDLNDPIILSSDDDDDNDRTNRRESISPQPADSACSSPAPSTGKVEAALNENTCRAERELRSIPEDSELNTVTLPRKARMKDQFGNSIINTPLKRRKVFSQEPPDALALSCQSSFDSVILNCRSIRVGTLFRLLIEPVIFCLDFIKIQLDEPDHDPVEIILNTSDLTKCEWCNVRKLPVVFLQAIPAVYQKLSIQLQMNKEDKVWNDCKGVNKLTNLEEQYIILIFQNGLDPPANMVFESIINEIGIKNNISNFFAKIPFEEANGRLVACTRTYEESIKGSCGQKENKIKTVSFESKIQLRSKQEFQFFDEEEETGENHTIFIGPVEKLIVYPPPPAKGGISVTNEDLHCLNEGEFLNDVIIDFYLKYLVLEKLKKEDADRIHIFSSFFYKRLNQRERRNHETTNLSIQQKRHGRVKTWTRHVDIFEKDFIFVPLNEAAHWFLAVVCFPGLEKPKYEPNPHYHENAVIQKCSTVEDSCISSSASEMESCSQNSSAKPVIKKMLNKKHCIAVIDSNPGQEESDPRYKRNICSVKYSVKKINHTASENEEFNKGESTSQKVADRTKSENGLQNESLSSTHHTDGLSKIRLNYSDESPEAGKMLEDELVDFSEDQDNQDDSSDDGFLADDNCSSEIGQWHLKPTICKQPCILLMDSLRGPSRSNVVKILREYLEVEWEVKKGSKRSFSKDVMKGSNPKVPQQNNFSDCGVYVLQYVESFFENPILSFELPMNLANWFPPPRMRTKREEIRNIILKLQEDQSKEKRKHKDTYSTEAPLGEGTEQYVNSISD
Format: functional.

Test [4] deals with T2, Sentrin-specific protease 7 (Homo sapiens, UniProt Q9BQF6).
T2 sequence (Q9BQF6 whole entry): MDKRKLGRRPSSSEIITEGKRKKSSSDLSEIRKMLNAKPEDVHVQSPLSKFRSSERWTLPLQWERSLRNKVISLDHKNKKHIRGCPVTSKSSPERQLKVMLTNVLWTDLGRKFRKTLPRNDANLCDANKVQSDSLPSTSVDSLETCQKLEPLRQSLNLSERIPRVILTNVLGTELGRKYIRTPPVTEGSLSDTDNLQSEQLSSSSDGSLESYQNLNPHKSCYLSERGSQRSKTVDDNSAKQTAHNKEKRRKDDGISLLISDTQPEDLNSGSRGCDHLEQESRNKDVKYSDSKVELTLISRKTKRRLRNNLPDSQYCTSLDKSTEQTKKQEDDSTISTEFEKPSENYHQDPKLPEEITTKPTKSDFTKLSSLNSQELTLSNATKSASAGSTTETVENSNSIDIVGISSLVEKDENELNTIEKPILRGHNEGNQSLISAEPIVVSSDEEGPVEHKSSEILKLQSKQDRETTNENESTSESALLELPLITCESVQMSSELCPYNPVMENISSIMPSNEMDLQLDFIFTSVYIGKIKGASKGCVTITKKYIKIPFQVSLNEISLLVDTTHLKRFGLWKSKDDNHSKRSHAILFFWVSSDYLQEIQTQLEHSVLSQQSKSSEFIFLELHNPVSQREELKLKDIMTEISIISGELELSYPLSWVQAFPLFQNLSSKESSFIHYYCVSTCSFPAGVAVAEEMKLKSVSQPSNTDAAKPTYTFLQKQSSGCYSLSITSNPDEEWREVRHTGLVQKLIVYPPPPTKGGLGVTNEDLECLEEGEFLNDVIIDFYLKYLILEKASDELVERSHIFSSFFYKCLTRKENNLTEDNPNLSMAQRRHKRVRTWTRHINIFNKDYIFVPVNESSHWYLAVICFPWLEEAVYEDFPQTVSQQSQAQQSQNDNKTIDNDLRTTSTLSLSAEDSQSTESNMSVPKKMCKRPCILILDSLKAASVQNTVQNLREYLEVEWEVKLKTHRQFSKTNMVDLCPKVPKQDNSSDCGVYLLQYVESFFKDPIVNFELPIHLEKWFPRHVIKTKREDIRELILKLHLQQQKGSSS
In kind it is functional.

Test [5] has as its target T3, Bcl-2-related protein A1 (Mus musculus, UniProt Q07440).
T3 sequence (Q07440 whole entry): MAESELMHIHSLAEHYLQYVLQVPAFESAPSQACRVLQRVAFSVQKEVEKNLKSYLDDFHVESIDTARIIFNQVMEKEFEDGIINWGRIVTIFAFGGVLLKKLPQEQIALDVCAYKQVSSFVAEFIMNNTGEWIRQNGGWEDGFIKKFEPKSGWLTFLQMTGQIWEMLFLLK
In words: displacement of Bid BH3 peptide from Bfl-1 – biochemical, fluorescence polarization, FITC-Bid, mouse, primary screen (AID 432).

For test [6], the target named is T4, Caspase-6 (Homo sapiens, UniProt P55212).
T4 sequence (P55212 whole entry): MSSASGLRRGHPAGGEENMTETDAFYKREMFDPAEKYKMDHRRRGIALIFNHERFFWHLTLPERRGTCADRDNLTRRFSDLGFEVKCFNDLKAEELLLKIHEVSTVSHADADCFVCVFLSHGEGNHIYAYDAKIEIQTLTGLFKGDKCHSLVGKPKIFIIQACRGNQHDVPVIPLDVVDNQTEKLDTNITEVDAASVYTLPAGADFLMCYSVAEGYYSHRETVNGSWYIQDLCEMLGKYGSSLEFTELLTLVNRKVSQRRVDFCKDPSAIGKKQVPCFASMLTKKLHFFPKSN
The experiment in a line: inhibition of CASP6 peptide cleavage – biochemical, VEID-R110 fluorescence, cherry-pick, dose response (AID 720632).

On to `CCCCCCCCCCOC(=O)C[n+]1c(COc2ccccc2C)n(C)c2ccccc21`, for which the EC50 in test [1] and in test [2] was > 92.5 µM (inactive) throughout.
With `Oc1nc(Nc2ccccc2)cc2ccccc12`, the half-inhibitory concentration (IC50) in test [3] was 345 nM (active); in test [4], 750 nM (active); in test [5] it was > 100 µM (not active).
As for `COc1cc(OC)c(-c2c3cc(O)c(=O)cc-3oc3cc(O)c(O)cc23)cc1OC`, the concentration at half-maximal activity (AC50) in test [6] is 36.7 nM (active).

The values above are taken from ChEMBL document CHEMBL1201862, “PubChem BioAssay data set” (2004).
